Test results from the supplement of paper PMC10307832.

What was measured:
Test in all cases: relative viability (nuclei count vs DMSO), 5 days (fraction); higher = more cells survive
A-427 = system: A-427
Summary of the method: (§1)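 For relative viability, nuclei counts in treated wells were divided by those in vehicle wells. Lung cancer cell lines had been pin-tool dosed in 1536-well plates the day after seeding and cultured for 5 days, then fixed and stained in one step (final 0.05% Triton X-100, 1% formaldehyde, 1 ug/ml Hoechst) and imaged at 4×. Doses were one drug alone or a fixed anchor-drug dose plus five library-drug doses (not always all listed) in √10 steps, and values are duplicate-plate medians.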

NCI-H1915 = system: NCI-H1915
Summary of the method: as §1

LOU-NH91 = system: LOU-NH91
Summary of the method: as §1

HCC-366 = system: HCC-366
Summary of the method: as §1

COR-L23 = system: COR-L23
Summary of the method: as §1

HCC-44 = system: HCC-44
Summary of the method: as §1

NCI-H838 = system: NCI-H838
Summary of the method: as §1

NCI-H3122 = system: NCI-H3122
Summary of the method: as §1

NCI-H2023 = system: NCI-H2023
Summary of the method: as §1

NCI-H1395 = system: NCI-H1395
Summary of the method: as §1

NCI-H596 = system: NCI-H596
Summary of the method: as §1

ChaGo-K-1 = system: ChaGo-K-1
Summary of the method: as §1

NCI-H650 = system: NCI-H650
Summary of the method: as §1

HCC-78 = system: HCC-78
Summary of the method: as §1

SK-MES-1 = system: SK-MES-1
Summary of the method: as §1

NCI-H1650 = system: NCI-H1650
Summary of the method: as §1

EKVX = system: EKVX
Summary of the method: as §1

EPLC-272H = system: EPLC-272H
Summary of the method: as §1

HOP-62 = system: HOP-62
Summary of the method: as §1

NCI-H661 = system: NCI-H661
Summary of the method: as §1

NCI-H2087 = system: NCI-H2087
Summary of the method: as §1

NCI-H1734 = system: NCI-H1734
Summary of the method: as §1

NCI-H358 = system: NCI-H358
Summary of the method: as §1

Work on `O=c1[nH]c2ccccc2n1C1CCN(CCCC(c2ccc(F)cc2)c2ccc(F)cc2)CC1` [Pimozide] + N=C(N)NC(=N)NCCc1ccccc1 [Phenformin] (partner 250 µM) yielded a relative viability (A-427; first compound 0.08 µM) of 0.368, a relative viability (A-427; first compound 0.253 µM) of 0.361 and a relative viability (A-427; first compound 0.8 µM) of 0.36. It also gave a relative viability (A-427; first compound 2.53 µM) of 0.238, a relative viability (A-427; first compound 8 µM) of 0.26 and a relative viability (NCI-H1915; first compound 0.08 µM) of 0.363. The relative viability (NCI-H1915; first compound 0.253 µM) was 0.349, the relative viability (NCI-H1915; first compound 0.8 µM) was 0.349 and the relative viability (NCI-H1915; first compound 2.53 µM) was 0.366. For the same compound, the relative viability (NCI-H1915; first compound 8 µM) was 0.367, the relative viability (LOU-NH91; first compound 0.08 µM) was 0.43 and the relative viability (LOU-NH91; first compound 0.253 µM) was 0.702. For the same compound, the relative viability (LOU-NH91; first compound 0.8 µM) was 0.677, the relative viability (LOU-NH91; first compound 2.53 µM) was 0.79 and the relative viability (LOU-NH91; first compound 8 µM) was 0.581. It also gave a relative viability (HCC-366; first compound 0.08 µM) of 0.664, a relative viability (HCC-366; first compound 0.253 µM) of 0.609 and a relative viability (HCC-366; first compound 0.8 µM) of 0.528. The relative viability (HCC-366; first compound 2.53 µM) was 0.535, the relative viability (HCC-366; first compound 8 µM) was 0.469 and the relative viability (COR-L23; first compound 0.08 µM) was 0.455. For the same compound, the relative viability (COR-L23; first compound 0.253 µM) was 0.479, the relative viability (COR-L23; first compound 0.8 µM) was 0.407 and the relative viability (COR-L23; first compound 2.53 µM) was 0.456. The relative viability (COR-L23; first compound 8 µM) was 0.49, the relative viability (HCC-44; first compound 0.08 µM) was 0.253 and the relative viability (HCC-44; first compound 0.253 µM) was 0.206. It also gave a relative viability (HCC-44; first compound 0.8 µM) of 0.138, a relative viability (HCC-44; first compound 2.53 µM) of 0.142 and a relative viability (HCC-44; first compound 8 µM) of 0.278. It also gave a relative viability (NCI-H838; first compound 0.08 µM) of 0.609, a relative viability (NCI-H838; first compound 0.253 µM) of 0.636 and a relative viability (NCI-H838; first compound 0.8 µM) of 0.636. For the same compound, the relative viability (NCI-H838; first compound 2.53 µM) was 0.519, the relative viability (NCI-H838; first compound 8 µM) was 0.562 and the relative viability (NCI-H3122; first compound 0.08 µM) was 0.372. It also gave a relative viability (NCI-H3122; first compound 0.253 µM) of 0.362, a relative viability (NCI-H3122; first compound 0.8 µM) of 0.393 and a relative viability (NCI-H3122; first compound 2.53 µM) of 0.343. For the same compound, the relative viability (NCI-H3122; first compound 8 µM) was 0.312, the relative viability (NCI-H2023; first compound 0.08 µM) was 0.41 and the relative viability (NCI-H2023; first compound 0.253 µM) was 0.403. The relative viability (NCI-H2023; first compound 0.8 µM) was 0.397, the relative viability (NCI-H2023; first compound 2.53 µM) was 0.385 and the relative viability (NCI-H2023; first compound 8 µM) was 0.354. The relative viability (NCI-H1395; first compound 0.08 µM) was 0.411, the relative viability (NCI-H1395; first compound 0.253 µM) was 0.405 and the relative viability (NCI-H1395; first compound 0.8 µM) was 0.411. It also gave a relative viability (NCI-H1395; first compound 2.53 µM) of 0.42, a relative viability (NCI-H1395; first compound 8 µM) of 0.403 and a relative viability (NCI-H596; first compound 0.08 µM) of 0.751. It also gave a relative viability (NCI-H596; first compound 0.253 µM) of 0.774, a relative viability (NCI-H596; first compound 0.8 µM) of 0.588 and a relative viability (NCI-H596; first compound 2.53 µM) of 0.637. For the same compound, the relative viability (NCI-H596; first compound 8 µM) was 0.897, the relative viability (ChaGo-K-1; first compound 0.08 µM) was 0.565 and the relative viability (ChaGo-K-1; first compound 0.253 µM) was 0.529. For the same compound, the relative viability (ChaGo-K-1; first compound 0.8 µM) was 0.461, the relative viability (ChaGo-K-1; first compound 2.53 µM) was 0.458 and the relative viability (ChaGo-K-1; first compound 8 µM) was 0.399. It also gave a relative viability (NCI-H650; first compound 0.08 µM) of 0.445, a relative viability (NCI-H650; first compound 0.253 µM) of 0.452 and a relative viability (NCI-H650; first compound 0.8 µM) of 0.417. The relative viability (NCI-H650; first compound 2.53 µM) was 0.467, the relative viability (NCI-H650; first compound 8 µM) was 0.457 and the relative viability (HCC-78; first compound 0.08 µM) was 0.781. For the same compound, the relative viability (HCC-78; first compound 0.8 µM) was 0.628, the relative viability (HCC-78; first compound 2.53 µM) was 0.635 and the relative viability (HCC-78; first compound 8 µM) was 0.678. The relative viability (SK-MES-1; first compound 0.08 µM) was 0.628, the relative viability (SK-MES-1; first compound 0.253 µM) was 0.619 and the relative viability (SK-MES-1; first compound 0.8 µM) was 0.664. It also gave a relative viability (SK-MES-1; first compound 2.53 µM) of 0.587, a relative viability (SK-MES-1; first compound 8 µM) of 0.603 and a relative viability (NCI-H1650; first compound 0.08 µM) of 0.378. It also gave a relative viability (NCI-H1650; first compound 0.253 µM) of 0.45, a relative viability (NCI-H1650; first compound 0.8 µM) of 0.495 and a relative viability (NCI-H1650; first compound 2.53 µM) of 0.418. It also gave a relative viability (NCI-H1650; first compound 8 µM) of 0.306, a relative viability (EKVX; first compound 0.08 µM) of 0.192 and a relative viability (EKVX; first compound 0.253 µM) of 0.235. The relative viability (EKVX; first compound 0.8 µM) was 0.201, the relative viability (EKVX; first compound 2.53 µM) was 0.235 and the relative viability (EKVX; first compound 8 µM) was 0.226. For the same compound, the relative viability (EPLC-272H; first compound 0.08 µM) was 0.29, the relative viability (EPLC-272H; first compound 0.253 µM) was 0.306 and the relative viability (EPLC-272H; first compound 0.8 µM) was 0.342. It also gave a relative viability (EPLC-272H; first compound 2.53 µM) of 0.0767, a relative viability (EPLC-272H; first compound 8 µM) of 0.253 and a relative viability (HOP-62; first compound 0.08 µM) of 0.67. The relative viability (HOP-62; first compound 0.253 µM) was 0.657, the relative viability (HOP-62; first compound 2.53 µM) was 0.644 and the relative viability (HOP-62; first compound 8 µM) was 0.655. The relative viability (NCI-H661; first compound 0.08 µM) was 0.256, the relative viability (NCI-H661; first compound 0.253 µM) was 0.287 and the relative viability (NCI-H661; first compound 0.8 µM) was 0.257. It also gave a relative viability (NCI-H661; first compound 2.53 µM) of 0.263, a relative viability (NCI-H661; first compound 8 µM) of 0.257 and a relative viability (NCI-H2087; first compound 0.08 µM) of 0.5. It also gave a relative viability (NCI-H2087; first compound 0.253 µM) of 0.47, a relative viability (NCI-H2087; first compound 2.53 µM) of 0.464 and a relative viability (NCI-H2087; first compound 8 µM) of 0.393. For the same compound, the relative viability (NCI-H1734; first compound 0.08 µM) was 0.408, the relative viability (NCI-H1734; first compound 0.253 µM) was 0.366 and the relative viability (NCI-H1734; first compound 2.53 µM) was 0.373. It also gave a relative viability (NCI-H1734; first compound 8 µM) of 0.426, a relative viability (NCI-H358; first compound 0.08 µM) of 0.295 and a relative viability (NCI-H358; first compound 0.253 µM) of 0.37. The relative viability (NCI-H358; first compound 0.8 µM) was 0.366, the relative viability (NCI-H358; first compound 2.53 µM) was 0.313 and the relative viability (NCI-H358; first compound 8 µM) was 0.327.
